Values of other authors, collected in patent publication US10925864B2, “Stable liquid injectable solution of midazolam and pentazocine” (NEON LABORATORIES LIMITED, priority 2015, dated 2021).
Counter-ions that a name gives are not always drawn. Like-named read-outs stand apart in the source and are kept apart here.

Assays:
[1] = water / aqueous solutions
[2] = after IM administration in adults

Row | SMILES | solubility [1] | Onset time of sedative effects [2] | solubility ([1]; hydrochloride)
1 | Cc1ncc2n1-c1ccc(Cl)cc1C(c1ccccc1F)=NC2 [Midazolam] | insoluble in water | 15 min | –
2 | Cc1ncc2n1-c1ccc(Cl)cc1C(c1ccccc1F)=NC2 [hydrochloride salt of midazolam, Midazolam hydrochloride] | – | – | soluble in aqueous solutions
